Experimental data as given in US20090148907A1, “NOVEL FRUCTOFURANOSIDASE ACTIVITY FOR OBTAINING THE PREBIOTIC OLIGOSACCHARIDE 6-KESTOSE” (CONSEJO SUPERIOR DE INVESTIGACIONES CIENTIFICAS, priority 2005, published 2009).

Experiments:
Format in all cases: biochemical
[1] = molecular target: T1, Fructofuranosidase activity of the extracellular fraction of S. occidentalis (Schwanniomyces occidentalis, UniProt P24133); assay: Fructofuranosidase activity of the extracellular fraction on different carbohydrates (glucose release, glucose oxidase-peroxidase); conditions: for Fructofuranosidase activity on substrate (in words): extracellular fraction, named sugar used as substrate; for Specific activity: extracellular fraction concentrated (30 kDa filter) and dialysed, activity on the named substrate
T1 construct: the enzyme object of the invention is extracellularly released; endogenous in cells; host or cells: Schwanniomyces occidentalis (ATCC26077 named) grown in lactose medium; the cell-free supernatant was concentrated by 30 kDa tangential filtration and dialysed
Method: (§1) The cell free fraction was obtained by centrifugation (F-0) of a culture of S. occidentalis ATCC26077 grown at 29° C. and 235 rpm. Fructofuranosidase activity was assayed in the latter, determining the glucose release on different substrates. A colorimetric assay and the standard methodology were used. The released glucose was quantified using the glucose oxidase-peroxidase coupled reaction: 0.4 ml of the solution to be determined was mixed with 0.1 ml of A:B (20:1) solution (A: 0.85 U/ml glucose oxidase, 0.40 U/ml peroxidase in sodium phosphate buffer pH 5; B: 0.6% O-dianisidine). It was incubated for 30 minutes at 37° C. and spectrophotometrically quantified at 450 nm. A standard glucose curve (0 to 100 μg/ml) was used. The fructofuranosidase activity unit is defined in μmol/ml min of glucose determined in the described conditions.
The cell free fraction, obtained by centrifugation, of a culture of S. occidentalis grown in lactose medium: 0.3% (w/v) YNB (yeast nitrogen base w/o amino acids, DIFCO), 3.5% (w/v) bactopeptone (DIFCO), 0.5% (w/v) KH2 PO4, 1% (w/v) MgSO4.7H2O, 1% (w/v) (NH4)SO4, and 2% lactose as a carbon source (R. D. Klein et al., “Purification and characterization of invertase from to novel industrial yeast, Schwanniomyces occidentalis”, Prep. Biochem, 1989, vol 19, pp. 293-319), grown until an optical density of 8.34 OD 660 nm, was concentrated using a tangential filtration system (30 kDa filter) followed by dialysis against 20 mM HCl-Tris pH 7 for 2 hours at a temperature of 4° C. and was assayed on different substrates.

[2] = molecular target: T2, Fructofuranosidase activity of the F-3 fraction of S. occidentalis (Schwanniomyces occidentalis, UniProt P24133); assay: Fructofuranosidase (hydrolytic) activity of the purified enzyme F-3 on different substrates; conditions: for Hydrolytic activity on substrate (in words): purified enzyme F-3; for Activity specific: purified protein F-3, 1% substrate
T2 construct: the enzyme object of the invention is extracellularly released; endogenous in cells; host or cells: Schwanniomyces occidentalis culture supernatant; concentrated (F-1), then DEAE-Sephacel at pH 7 (F-2) and at pH 5 (F-3)
Method: as §1
The hydrolytic activity of the purified enzyme (F-3), following the described method, was assayed on different substrates. The maximum activity level is obtained on sucrose. Activity on lactose, leucrose, turanose or palatinose was not observed.

[3] = molecular target: T3, fructofuranosidase of S. occidentalis (pure enzyme F-3) (Schwanniomyces occidentalis, UniProt P24133); assay: Transfructosidase (transglycosylation) activity of pure enzyme F-3 on sucrose, HPLC; conditions: for Composition of the system: final reaction time (144 h), F-3 0.5 U/ml, 50° C.
T3 construct: the enzyme object of the invention is extracellularly released; endogenous in cells; host or cells: Schwanniomyces occidentalis culture supernatant; concentrated (F-1), then DEAE-Sephacel at pH 7 (F-2) and at pH 5 (F-3)
Method: The transglycosylation activity of the pure enzyme (fraction F-3) was assayed. A reaction was prepared using a high concentration of sucrose (510 g/l) and a final enzymatic activity in the reaction mixture of approximately 0.5 U/ml. […] It is seen that the profile of the obtained products is very similar in both cases, specifically the 6-kestose/1-kestose ratio that was obtained was 3.3.
After 144 hours of reaction, 42.6 g/l of FOS were obtained. The total percentage (w/w) of fructooligosaccharides was 8.4% this value being with respect to the total weight of carbohydrates in the medium.
A high concentration solution of sucrose ([…]) in 0.2 M sodium acetate buffer pH 5.6 was prepared. The fructofuranosidase was added until a final concentration in the reaction mixture of 0.5 U/ml (one unit U is the enzymatic activity corresponding to releasing a micromole of reducing sugars per minute, using 100 g/l of sucrose as substrate, in 0.2 M sodium acetate buffer pH 5.6, at 50° C.). The reaction mixture was incubated for 144 hours at 50° C., with orbital stirring at 700 rpm. Aliquots were extracted at different times, incubated for 5 minutes at 80° C. to inactivate the enzyme, diluted 1:2 (v/v) with water centrifuged for 5 minutes at 6000 rpm in an eppendorf tube with a 0.45 μm filter and analyzed by HPLC liquid chromatography. The profile of the products formed is seen in FIG. 7. Two trisaccharides were obtained: a majority trisaccharide, identified as 6-kestose, and another minority trisaccharide, identified as 1-kestose. At the final reaction time (144 h), the composition of the system was: 12.7% fructose, 14.80/glucose. 64.1% sucrose, 2.4% 1-kestose and 5.9% 6-kestose).

[4] = molecular target: T4, fructofuranosidase of S. occidentalis (enzymatic concentrate F-1) (Schwanniomyces occidentalis, UniProt P24133); assay: Transfructosidase (transglycosylation) activity of enzymatic concentrate F-1 on sucrose, HPLC; conditions: for Composition of the system: maximum point of FOS production (4 h), F-1 5 U/ml; for Composition of the system / Composition of the reaction mixture: 50° C.; for Composition of the reaction mixture: F1 5 U/ml, pH 5.6
T4 construct: the enzyme object of the invention is extracellularly released; endogenous in cells; host or cells: Schwanniomyces occidentalis (ATCC26077 named) grown in lactose medium; the cell-free supernatant was concentrated by 30 kDa tangential filtration and dialysed
Method: The transglycosylation activity of the enzymatic concentrate obtained by ultrafiltration (F-1) was assayed. A reaction was prepared using a high concentration of sucrose (510 g/l), to favor the formation of glycosidic bonds in detriment of the hydrolysis reaction, and a final activity enzymatic in the reaction mixture of approximately 5 U/ml. […] On one hand, fructose (peak 1) and glucose (peak 2) are formed as hydrolytic products. On the other hand, two trisaccharides are obtained: a majority trisaccharide (peak 4), identified as 6-kestose [β-D-Fru-(2→6)-β-D-Fru-(2→1)-α-D-Glu] and another minority trisaccharide (peak 5), identified as 1-kestose. [β-D-Fru-(2→1)-β-D-Fru-(2→1)-α-D-Glu]. The sucrose that has not reacted corresponds to peak 3.
It is observed that the 6-kestose/1-kestose molar ratio reaches a maximum value of 3.3 between 4 and 6 hours of reaction.
A high concentration solution of sucrose (510 g/l) in 0.2 M sodium acetate buffer pH 5.6 was prepared. The fructofuranosidase was added until a final concentration in the reaction mixture of 5 U/ml (one unit U is the enzymatic activity corresponding to release of a micromole of reducing sugars per minute, using 100 g/l of sucrose as substrate, in 0.2 M sodium acetate buffer pH 5.6, at 50° C.). The reaction mixture was incubated for 24 hours at 50° C., with orbital stirring at 700 rpm. Aliquots were extracted at different times, incubated for 5 minutes at 80° C. to inactivate the enzyme, diluted 1:2 (v/v) with water, centrifuged for 5 minutes at 6000 rpm in an eppendorf tube with a 0.45 μm filter and analyzed by HPLC liquid chromatography. The profile of the products formed is seen in FIG. 5. It is observed that the fructofuranosidase of S. occidentalis has transfer activity (transfructosylation). Two trisaccharides are obtained: one majority trisaccharide, 6-kestose [3-D-Fru-(2→6)-β-D-Fru-(2→1)-α-D-Glu]and another minority trisaccharide, identified as 1-kestose [β-D-Fru-(2→1)-β-D-Fru-(2→1)-α-D-Glu]. In the maximum point of FOS production (4 h), the composition of the system was: 8.7% fructose, 11.9% glucose, 70.8% sucrose, 2.0% 1-kestose and 6.6% 6-kestose.

T2 sequence (P24133 other isoform, or with tags, fused parts or gaps with the stated changes): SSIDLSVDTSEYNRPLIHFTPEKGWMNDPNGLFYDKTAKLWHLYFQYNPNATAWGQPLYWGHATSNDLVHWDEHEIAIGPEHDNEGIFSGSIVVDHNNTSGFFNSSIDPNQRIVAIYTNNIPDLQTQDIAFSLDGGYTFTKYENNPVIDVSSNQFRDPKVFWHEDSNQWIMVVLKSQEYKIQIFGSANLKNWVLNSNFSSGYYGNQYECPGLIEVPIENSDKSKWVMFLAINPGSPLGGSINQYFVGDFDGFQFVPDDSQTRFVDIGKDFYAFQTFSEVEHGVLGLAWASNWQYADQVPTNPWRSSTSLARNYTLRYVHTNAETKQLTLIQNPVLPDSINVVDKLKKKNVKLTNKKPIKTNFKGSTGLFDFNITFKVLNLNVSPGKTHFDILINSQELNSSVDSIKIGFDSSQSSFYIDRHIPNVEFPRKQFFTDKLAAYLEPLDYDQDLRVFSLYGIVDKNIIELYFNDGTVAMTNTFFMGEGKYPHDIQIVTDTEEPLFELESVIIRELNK
T1 sequence (P24133 other isoform, or with tags, fused parts or gaps with the stated changes): as above
T3 sequence (P24133 other isoform, or with tags, fused parts or gaps with the stated changes): as above
T4 sequence (P24133 other isoform, or with tags, fused parts or gaps with the stated changes): as above

Row | SMILES | Fructofuranosidase activity on substrate (in words) [1] | Hydrolytic activity on substrate (in words) [2] | Specific activity [1] | Activity specific [2] | Composition of the system [3] | Composition of the system [4] | Composition of the reaction mixture ([4]; reaction time 1 h) | Composition of the reaction mixture ([4]; reaction time 1.5 h) | Composition of the reaction mixture ([4]; reaction time 4 h) | Composition of the reaction mixture ([4]; reaction time 6 h) | Composition of the reaction mixture ([4]; reaction time 24 h) | 6-kestose/1-kestose ratio ([3]; pure enzyme F-3 0.5 U/ml, 144 hours) | 6-kestose/1-kestose molar ratio, maximum value ([4]; between 4 and 6 hours of reaction, F-1)
1 | OC[C@H]1O[C@H](OC[C@H]2OC(O)(CO)[C@@H](O)[C@@H]2O)[C@H](O)[C@@H](O)[C@@H]1O (stereo partly shown) [palatinose] | No activity was detected | not observed |  |  |  |  |  |  |  |  |  |  | 
2 | OC[C@H]1O[C@@](CO)(OC[C@@]2(O[C@H]3O[C@H](CO)[C@@H](O)[C@H](O)[C@H]3O)O[C@H](CO)[C@@H](O)[C@@H]2O)[C@@H](O)[C@@H]1O [1-kestose, β-D-Fru-(2→1)-β-D-Fru-(2→1)-α-D-Glu] |  |  | 2.2 mU/μg | 6.3 mU/μg | 2.4% | 2.0% | 2.8 grams/liter | 6.4 grams/liter | 10.1 grams/liter | 9.6 grams/liter | 4.5 grams/liter |  | 
3 | OC[C@H]1O[C@@](CO)(OC[C@H]2O[C@@](CO)(O[C@H]3O[C@H](CO)[C@@H](O)[C@H](O)[C@H]3O)[C@@H](O)[C@@H]2O)[C@@H](O)[C@@H]1O [6-kestose, β-D-Fru-(2→6)-β-D-Fru-(2→1)-α-D-Glu] |  |  |  |  | 5.9% | 6.6% | 5.4 grams/liter | 12.7 grams/liter | 33.5 grams/liter | 31.0 grams/liter | 10.6 grams/liter | 3.3 | 3.3
4 | OC[C@H]1O[C@@H](O[C@H]2[C@H](O)[C@@H](O)C(O)O[C@@H]2CO)[C@H](O)[C@@H](O)[C@H]1O (stereo partly shown) [lactose] | No activity was detected | not observed |  |  |  |  |  |  |  |  |  |  | 
5 | OC[C@H]1O[C@@](CO)(O[C@H]2O[C@H](CO)[C@@H](O)[C@H](O)[C@H]2O)[C@@H](O)[C@@H]1O [sucrose, α-D-Glu-(1→2)-β-D-Fru] |  |  | 24 mU/μg | 109 mU/μg | 64.1% | 70.8% | 487.3 grams/liter | 453.8 grams/liter | 361.6 grams/liter | 343.7 grams/liter | 240.9 grams/liter |  | 
6 | OC[C@H]1O[C@@](CO)(OC[C@@]2(OC[C@@]3(O[C@H]4O[C@H](CO)[C@@H](O)[C@H](O)[C@H]4O)O[C@H](CO)[C@@H](O)[C@@H]3O)O[C@H](CO)[C@@H](O)[C@@H]2O)[C@@H](O)[C@@H]1O [nystose] |  |  | 0.6 mU/μg | 6.2 mU/μg |  |  |  |  |  |  |  |  | 
7 | OC[C@H]1O[C@H](OC[C@H]2O[C@H](O[C@]3(CO)O[C@H](CO)[C@@H](O)[C@@H]3O)[C@H](O)[C@@H](O)[C@@H]2O)[C@H](O)[C@@H](O)[C@H]1O [raffinose] |  |  | 0.2 mU/μg | 7.5 mU/μg |  |  |  |  |  |  |  |  | 
8 | O=C(CO)[C@@H](O)[C@H](O)[C@H](O)CO [fructose] |  |  |  |  | 12.7% | 8.7% | 5.3 grams/liter | 16.8 grams/liter | 44.3 grams/liter | 54.8 grams/liter | 113.6 grams/liter |  | 
9 | OC[C@H]1O[C@H](O[C@@H]2COC(O)(CO)[C@@H](O)[C@@H]2O)[C@H](O)[C@@H](O)[C@@H]1O (stereo partly shown) [leucrose] | No activity was detected | not observed |  |  |  |  |  |  |  |  |  |  | 
10 | O=C(CO)[C@@H](O[C@H]1O[C@H](CO)[C@@H](O)[C@H](O)[C@H]1O)[C@H](O)[C@H](O)CO [turanose] | No activity was detected | not observed |  |  |  |  |  |  |  |  |  |  | 
